Reference: patent US8088815B2, “Spiroindolinone pyrrolidines” (Hoffman-La Roche Inc., priority 2009, dated 2012)

Target: interaction between p53 and MDM2 proteins (Homo sapiens, UniProt Q00987)
Test: HTRF assay of inhibition of the p53-MDM2 interaction (GST-MDM2 / biotinylated p53 peptide)
Assay type: binding
Conditions: recombinant GST-tagged MDM2 and biotinylated p53 peptide, bsa:0.02%

Chain of interaction between p53 and MDM2 proteins (Q00987 whole entry): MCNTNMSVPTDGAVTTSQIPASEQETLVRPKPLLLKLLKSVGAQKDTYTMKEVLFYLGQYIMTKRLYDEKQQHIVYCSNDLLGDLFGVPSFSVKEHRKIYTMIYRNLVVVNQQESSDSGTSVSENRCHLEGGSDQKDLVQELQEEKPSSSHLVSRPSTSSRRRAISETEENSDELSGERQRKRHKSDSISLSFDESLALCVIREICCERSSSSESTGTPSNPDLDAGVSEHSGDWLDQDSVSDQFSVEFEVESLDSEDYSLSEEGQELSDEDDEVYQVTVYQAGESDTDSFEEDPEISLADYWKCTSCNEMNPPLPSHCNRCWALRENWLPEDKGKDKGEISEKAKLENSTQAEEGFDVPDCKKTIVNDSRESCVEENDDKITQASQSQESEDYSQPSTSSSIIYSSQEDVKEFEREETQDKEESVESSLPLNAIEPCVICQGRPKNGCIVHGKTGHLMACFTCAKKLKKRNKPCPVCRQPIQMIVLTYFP

Row | SMILES | IC50 [nM]
1 | COc1cc(NC(=O)[C@@H]2N[C@@H](CC(C)(C)C)[C@@]3(C(=O)Nc4cc(Cl)ccc43)[C@H]2c2cccc(Cl)c2F)ccc1C(N)=O [Example 23, chiral (2′S,3′R,4′S,5′R)-6-chloro-4′-(3-chloro-2-fluoro-phenyl)-2′-(2,2-dimethyl-propyl)-2-oxo-1,2-dihydro-spiro[indole-3,3′-pyrrolidine]-5′-carboxylic acid (4-carbamoyl-3-methoxy-phenyl)-amide] | 5
2 | CC(C)(C)C[C@@H]1N[C@@H](C(=O)Nc2ccc(C(N)=O)c(Cl)c2)[C@H](c2cccc(Cl)c2F)[C@]12C(=O)Nc1cc(Cl)ccc12 [Example 26, chiral (2′S,3′R,4′S,5′R)-6-chloro-4′-(3-chloro-2-fluoro-phenyl)-2′-(2,2-dimethyl-propyl)-2-oxo-1,2-dihydro-spiro[indole-3,3′-pyrrolidine]-5′-carboxylic acid (4-carbamoyl-3-chloro-phenyl)-amide] | 6
3 | CN(C)C(=O)c1ccc(NC(=O)[C@@H]2N[C@@H](CC(C)(C)C)[C@@]3(C(=O)Nc4cc(Cl)ccc43)[C@H]2c2cccc(Cl)c2F)cc1 [Example 35, chiral (2′S,3′R,4′S,5′R)-6-chloro-4′-(3-chloro-2-fluoro-phenyl)-2′-(2,2-dimethyl-propyl)-2-oxo-1,2-dihydro-spiro[indole-3,3′-pyrrolidine]-5′-carboxylic acid (4-dimethylcarbamoyl-phenyl)-amide] | 5
4 | CC(C)(C)C[C@@H]1N[C@@H](C(=O)Nc2ccc(C(N)=O)cc2)[C@H](c2cccc(Cl)c2F)[C@]12C(=O)Nc1cc(Cl)c(F)cc12 [Example 50, chiral (2′S,3′R,4′S,5′S)-6-chloro-4′-(3-chloro-2-fluoro-phenyl)-2′-(2,2-dimethyl-propyl)-5-fluoro-2-oxo-1,2-dihydro-spiro[indole-3,3′-pyrrolidine]-5′-carboxylic acid (4-carbamoyl-phenyl)-amide] | 6
5 | CC(C)(C)C[C@@H]1N[C@@H](C(=O)Nc2ccc(C(N)=O)cc2F)[C@H](c2cccc(Cl)c2F)[C@]12C(=O)Nc1cc(Cl)ccc12 [Example 54, chiral (2′S,3′R,4′S,5′R)-6-chloro-4′-(3-chloro-2-fluoro-phenyl)-2′-(2,2-dimethyl-propyl)-2-oxo-1,2-dihydro-spiro[indole-3,3′-pyrrolidine]-5′-carboxylic acid (4-carbamoyl-2-fluoro-phenyl)-amide] | 7
6 | COc1cc(C(N)=O)ccc1NC(=O)[C@@H]1N[C@@H](CC(C)(C)C)[C@@]2(C(=O)Nc3cc(Cl)ccc32)[C@H]1c1cccc(Cl)c1F [Example 60, chiral (2′S,3′R,4′S,5′R)-6-chloro-4′-(3-chloro-2-fluoro-phenyl)-2′-(2,2-dimethyl-propyl)-2-oxo-1,2-dihydro-spiro[indole-3,3′-pyrrolidine]-5′-carboxylic acid (4-carbamoyl-2-methoxy-phenyl)-amide] | 5
7 | CC(C)(C)C[C@@H]1N[C@@H](C(=O)Nc2ccc(C(N)=O)cc2)[C@H](c2cccc(Cl)c2)[C@]12C(=O)Nc1cc(Cl)ccc12 [Example 65B, chiral (2′S,3′R,4′R,5′R)-6-chloro-4′-(3-chloro-phenyl)-2′-(2,2-dimethyl-propyl)-2-oxo-1,2-dihydro-spiro[indole-3,3′-pyrrolidine]-5′-carboxylic acid (4-carbamoyl-phenyl)-amide] | 6
8 | CC(C)(C)C[C@@H]1N[C@@H](C(=O)Nc2ccc(C(N)=O)cc2)[C@H](c2cccc(Cl)c2F)[C@]12C(=O)Nc1cc(Cl)cc(F)c12 [Example 74, chiral (2′S,3′R,4′S,5′R)-6-chloro-4′-(3-chloro-2-fluoro-phenyl)-2′-(2,2-dimethyl-propyl)-4-fluoro-2-oxo-1,2-dihydro-spiro[indole-3,3′-pyrrolidine]-5′-carboxylic acid (4-carbamoyl-phenyl)-amide] | 6
9 | COc1cc(C(N)=O)ccc1NC(=O)[C@@H]1N[C@@H](CC(C)(C)C)[C@@]2(C(=O)Nc3cc(Cl)cc(F)c32)[C@H]1c1cccc(Cl)c1F [Example 77, chiral (2′S,3′R,4′S,5′R)-6-chloro-4′-(3-chloro-2-fluoro-phenyl)-2′-(2,2-dimethyl-propyl)-4-fluoro-2-oxo-1,2-dihydro-spiro[indole-3,3′-pyrrolidine]-5′-carboxylic acid (4-carbamoyl-2-methoxy-phenyl)-amide] | 5
10 | COc1cc(C(=O)O)ccc1NC(=O)[C@@H]1N[C@@H](CC(C)(C)C)[C@@]2(C(=O)Nc3cc(Cl)ccc32)[C@H]1c1cccc(Cl)c1F [Example 111, chiral 4-{[(2′S,3′R,4′S,5′R)-6-chloro-4′-(3-chloro-2-fluoro-phenyl)-2′-(2,2-dimethyl-propyl)-2-oxo-1,2-dihydro-spiro[indole-3,3′-pyrrolidine]-5′-carbonyl]-amino}-3-methoxy-benzoic acid] | 5
11 | COc1cc(OCCO)ccc1NC(=O)[C@@H]1N[C@@H](CC(C)(C)C)[C@@]2(C(=O)Nc3cc(Cl)ccc32)[C@H]1c1cccc(Cl)c1F [Example 134, chiral (2′S,3′R,4′S,5′R)-6-chloro-4′-(3-chloro-2-fluoro-phenyl)-2′-(2,2-dimethyl-propyl)-2-oxo-1,2-dihydro-spiro[indole-3,3′-pyrrolidine]-5′-carboxylic acid [4-(2-hydroxy-ethoxy)-2-methoxy-phenyl]-amide] | 5
12 | CC(C)(C)C[C@@H]1N[C@@H](C(=O)Nc2ccc(C#N)cc2)[C@H](c2cccc(Cl)c2F)[C@]12C(=O)Nc1cc(Cl)ccc12 [Example 137, chiral (2′S,3′R,4′S,5′R)-6-chloro-4′-(3-chloro-2-fluoro-phenyl)-2′-(2,2-dimethyl-propyl)-2-oxo-1,2-dihydro-spiro[indole-3,3′-pyrrolidine]-5′-carboxylic acid (4-cyano-phenyl)-amide] | 5
13 | CC(C)(C)C[C@@H]1N[C@@H](C(=O)Nc2ccccc2)[C@H](c2cccc(Cl)c2F)[C@]12C(=O)Nc1cc(Cl)ccc12 [Example 147, chiral (2′S,3′R,4′S,5′R)-6-chloro-4′-(3-chloro-2-fluoro-phenyl)-2′-(2,2-dimethyl-propyl)-2-oxo-1,2-dihydro-spiro[indole-3,3′-pyrrolidine]-5′-carboxylic acid phenylamide] | 11
14 | COc1cc(C(N)=O)ccc1NC(=O)[C@@H]1N[C@@H](CC(C)(C)C)[C@@]2(C(=O)Nc3cc(Cl)ccc32)[C@H]1c1cc(F)cc(Cl)c1 [Example 148, chiral (2′S,3′R,4′R,5′R)-6-chloro-4′-(3-chloro-5-fluoro-phenyl)-2′-(2,2-dimethyl-propyl)-2-oxo-1,2-dihydro-spiro[indole-3,3′-pyrrolidine]-5′-carboxylic acid (4-carbamoyl-2-methoxy-phenyl)-amide] | 5
15 | COc1cc(S(=O)(=O)N2CCOCC2)ccc1NC(=O)[C@@H]1N[C@@H](CC(C)(C)C)[C@@]2(C(=O)Nc3cc(Cl)ccc32)[C@H]1c1cccc(Cl)c1F [Example 154, chiral (2′S,3′R,4′S,5′R)-6-chloro-4′-(3-chloro-2-fluoro-phenyl)-2′-(2,2-dimethyl-propyl)-2-oxo-1,2-dihydro-spiro[indole-3,3′-pyrrolidine]-5′-carboxylic acid [2-methoxy-4-(morpholine-4-sulfonyl)-phenyl]-amide] | 4
